This is an account of results in patent US10508085B2, “Compounds and methods for IDO and TDO modulation, and indications therefor” (Plexxikon Inc., priority 2016, dated 2019).

Assay [1] addresses T1, Human Indoleamine 2,3-dioxygenase (IDO) (Homo sapiens, UniProt P14902).
T1 construct: His tag (N); made in house; host or cells: E. coli
The experiment in a line: Human IDO enzymatic assay (kynurenine level). Format: biochemical. The following applies: 6 nM IDO, 10 μM L-Trp; geometric mean; read-out: IDO1 GMean: IC50 (μM) (Biochemical Assay). An outline of the steps:
(§1)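 N-His human IDO (6 nM, 10 μM L-Trp, 5 μM methylene blue, 20 min) or TDO (1 nM, 350 μM L-Trp, 0.4 μM methylene blue, 70 min) run at room temp in pH 6.5 phosphate with ascorbate, catalase, Tween 20. TCA stop, 30 min 50 °C converts N-formylkynurenine to kynurenine; IC50 by nonlinear regression.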

In assay [2] the target is T2, Human Tryptophan 2,3-dioxygenase (TDO) (Homo sapiens, UniProt P48775).
T2 construct: His tag (N); made in house; host or cells: E. coli
T2 sequence (P48775 whole entry): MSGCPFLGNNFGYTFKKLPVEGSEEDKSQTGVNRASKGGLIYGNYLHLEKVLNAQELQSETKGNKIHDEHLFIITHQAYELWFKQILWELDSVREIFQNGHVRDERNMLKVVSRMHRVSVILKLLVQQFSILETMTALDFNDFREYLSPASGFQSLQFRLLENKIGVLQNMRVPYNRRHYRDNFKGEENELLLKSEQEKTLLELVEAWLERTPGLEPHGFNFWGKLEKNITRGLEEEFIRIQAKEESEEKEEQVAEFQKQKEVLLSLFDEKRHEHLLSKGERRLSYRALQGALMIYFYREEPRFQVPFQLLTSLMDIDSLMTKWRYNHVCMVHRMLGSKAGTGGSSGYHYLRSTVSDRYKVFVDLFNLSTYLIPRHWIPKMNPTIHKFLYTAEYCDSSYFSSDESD
The experiment in a line: Human TDO enzymatic assay (kynurenine level). Format: biochemical. The following applies: 1 nM TDO, 350 μM L-Trp; geometric mean; read-out: TDO GMean: IC50 (μM) (Biochemical Assay). An outline of the steps:
as §1

The target of assay [3] is T3, human TDO (TDO-expressing HEK293 cells) (Homo sapiens, UniProt P48775).
T3 construct: expressed in transfected cells
T3 sequence (P48775 whole entry): as above
The experiment in a line: Cell based kynurenine assay, TDO-expressing HEK293 cell clones. To be noted: TDO-expressing HEK293 cells, 24 hours incubation; geometric mean; read-out: HEK293 TDO Kynurenine GMean IC50 (μM) (Cellular Assay). An outline of the steps: (§2)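 Stably transfected HEK293 clones expressing human IDO1 or TDO (CMV promoter) were seeded at 2.5×10^4 cells/well and treated with serially diluted compounds for 24 h. Supernatant kynurenine was then measured, and % inhibition versus DMSO-treated cell and media-only controls was fitted by nonlinear regression to give IC50.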

In assay [4] the target is T4, human IDO (IDO1-expressing HEK293 cells) (Homo sapiens, UniProt P14902).
T4 construct: expressed in transfected cells
T4 sequence (P14902 whole entry): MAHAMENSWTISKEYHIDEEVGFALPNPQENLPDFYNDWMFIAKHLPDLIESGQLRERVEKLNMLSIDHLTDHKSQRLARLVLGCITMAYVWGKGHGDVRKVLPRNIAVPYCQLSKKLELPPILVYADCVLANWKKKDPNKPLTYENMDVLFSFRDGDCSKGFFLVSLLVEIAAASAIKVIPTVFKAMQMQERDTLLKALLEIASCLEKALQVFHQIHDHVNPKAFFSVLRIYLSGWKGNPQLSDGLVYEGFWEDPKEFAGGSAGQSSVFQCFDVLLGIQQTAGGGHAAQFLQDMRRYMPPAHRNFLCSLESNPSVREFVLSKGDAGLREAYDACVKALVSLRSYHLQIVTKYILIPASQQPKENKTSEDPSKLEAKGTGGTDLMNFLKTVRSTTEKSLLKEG
The experiment in a line: Cell based kynurenine assay, IDO1-expressing HEK293 cell clones. To be noted: IDO1-expressing HEK293 cells, 24 hours incubation; geometric mean; read-out: HEK293 IDO1 Kynurenine GMean IC50 (μM) (Cellular Assay). An outline of the steps:
as §2

T1 sequence (P14902 whole entry): as above

What is called IC50 is the concentration that inhibits the measured activity by half. For the molecule `CC(C)(C1CCN(C(=O)Nc2ccc(F)cc2)CC1)[C@@H](O)c1cc(Cl)cc2cn[nH]c12` [Compound P-0339, (R)-4-(1-(5-chloro-1H-indazol-7-yl)-1-hydroxy-2-methylpropan-2-yl)-N-(4-fluorophenyl) piperidine-1-carboxamide], the IC50 in assay [1], in assay [2], in assay [3] and in assay [4] was 0.0001 to 10 µM each time.

For the molecule `CC(C)(C(O)c1cc(Cl)cc2cn[nH]c12)[C@H]1C[C@H]2CC[C@@H](C1)N2C(N)=O` (stereo partly drawn) [Compound P-0340], the IC50 in assay [1], in assay [2], in assay [3] and in assay [4] was 0.0001 to 10 µM in each case.

Take `O=C(c1cccnc1)N1CCC(C(F)(F)C(O)c2c(F)c(Cl)cc3cn[nH]c23)CC1` (stereo not drawn) [Compound P-0341, (4-(2-(5-chloro-6-fluoro-1H-indazol-7-yl)-1,1-difluoro-2-hydroxyethyl)piperidin-1-yl)(pyridin-3-yl)methanone]: the IC50 in assay [1], in assay [2], in assay [3] and in assay [4] was 0.0001 to 10 µM each time.

For `COC(=O)N1CCC(C(F)(F)C(O)c2c(F)c(Cl)cc3cn[nH]c23)CC1` (stereo not drawn) [Compound P-0342, methyl 4-(2-(5-chloro-6-fluoro-1H-indazol-7-yl)-1,1-difluoro-2-hydroxyethyl) piperidine-1-carboxylate], the IC50 in assay [1], in assay [2], in assay [3] and in assay [4] was 0.0001 to 10 µM in each case.

Regarding `O=C(C1CC1)N1CCC(C(F)(F)C(O)c2c(F)c(Cl)cc3cn[nH]c23)CC1` (stereo not drawn) [Compound P-0343, (4-(2-(5-chloro-6-fluoro-1H-indazol-7-yl)-1,1-difluoro-2-hydroxyethyl)piperidin-1-yl)(cyclopropyl) methanone], the half-inhibitory concentration (IC50) in assay [1], in assay [2], in assay [3] and in assay [4] was 0.0001 to 10 µM in each case.

With `CC(C)(C1CCN(C(=O)Nc2ccc(F)cc2)CC1)[C@H](O)c1cc(Cl)cc2cn[nH]c12` [Compound P-0344, (S)-4-(1-(5-chloro-1H-indazol-7-yl)-1-hydroxy-2-methylpropan-2-yl)-N-(4-fluorophenyl)piperidine-1-carboxamide], the 50% inhibitory concentration (IC50) in assay [1], in assay [2], in assay [3] and in assay [4] was 0.0001 to 10 µM each time.

For the molecule `NS(=O)(=O)N1CCC(C(F)(F)C(O)c2cc(Cl)cc3cn[nH]c23)CC1` (stereo not drawn) [Compound P-0345, 4-(2-(5-chloro-1H-indazol-7-yl)-1,1-difluoro-2-hydroxyethyl) piperidine-1-sulfonamide], the IC50 in assay [1], in assay [2], in assay [3] and in assay [4] was 0.0001 to 10 µM each time.

For the molecule `NC(=O)N1CCC2(CC1)CC(O)(c1cc(Cl)cc3cn[nH]c13)C2` [Compound P-0346, 2-(5-chloro-1H-indazol-7-yl)-2-hydroxy-7-azaspiro[3.5] nonane-7-carboxamide], the IC50 in assay [1], in assay [2], in assay [3] and in assay [4] was 0.0001 to 10 µM in each case.

With `CC(C)(C(O)c1cc(Cl)cc2cn[nH]c12)[C@H]1C[C@H]2CC[C@@H](C1)N2S(N)(=O)=O` (stereo partly drawn) [Compound P-0347, (1R,3r,5S)-3-(1-(5-chloro-1H-indazol-7-yl)-1-hydroxy-2-methylpropan-2-yl)-8-azabicyclo[3.2.1] octane-8-sulfonamide], the IC50 in assay [1], in assay [2], in assay [3] and in assay [4] was 0.0001 to 10 µM throughout.

On to `COC12CCC(C(O)c3cc(Cl)cc4[nH]ncc34)(CC1)CC2` (stereo not drawn) [Compound P-0348, (6-chloro-1H-indazol-4-yl)(4-methoxybicyclo [2.2.2]octan-1-yl)methanol], for which the IC50 in assay [1] is 0.0001 to 10 µM; in assay [2], 0.0001 to 10 µM; in assay [3], 0.0001 to 10 µM; in assay [4], more than 10 µM.

Take `O=C(C1CCC1)N1CCC(C(F)(F)C(O)c2cc(Cl)cc3cn[nH]c23)CC1` (stereo not drawn) [Compound P-0349, (4-(2-(5-chloro-1H-indazol-7-yl)-1,1-difluoro-2-hydroxyethyl)piperidin-1-yl)(cyclobutyl) methanone]: the IC50 in assay [1], in assay [2], in assay [3] and in assay [4] was 0.0001 to 10 µM each time.

On to `COCC(=O)N1CCC(C(F)(F)C(O)c2cc(Cl)cc3cn[nH]c23)CC1` (stereo not drawn) [Compound P-0350, 1-(4-(2-(5-chloro-1H-indazol-7-yl)-1,1-difluoro-2-hydroxyethyl)piperidin-1-yl)-2-methoxyethan-1-one], for which the IC50 in assay [1], in assay [2], in assay [3] and in assay [4] was 0.0001 to 10 µM each time.

In the case of `CC(C)C(=O)N1CCC(C(F)(F)C(O)c2cc(Cl)cc3cn[nH]c23)CC1` (stereo not drawn) [Compound P-0351, 1-(4-(2-(5-chloro-1H-indazol-7-yl)-1,1-difluoro-2-hydroxyethyl)piperidin-1-yl)-2-methylpropan-1-one], the concentration for half-maximal inhibition (IC50) in assay [1], in assay [2], in assay [3] and in assay [4] was 0.0001 to 10 µM in each case.

With `OC1(c2cc(Cl)cc3[nH]ncc23)CC2(CC2)C1` [Compound P-0352, 5-(6-chloro-1H-indazol-4-yl)spiro[2.3] hexan-5-ol], the IC50 is 10 to 100 µM in assay [1], 0.0001 to 10 µM in assay [2], 0.0001 to 10 µM in assay [3] and more than 10 µM in assay [4].

Take `CC(C)(C1CCN(C(=O)NS(=O)(=O)c2ccccc2)CC1)C(O)c1cc(Cl)cc2cn[nH]c12` (stereo not drawn) [Compound P-0353, 4-(1-(5-chloro-1H-indazol-7-yl)-1-hydroxy-2-methylpropan-2-yl)-N-(phenylsulfonyl) piperidine-1-carboxamide]: the IC50 in assay [1], in assay [2], in assay [3] and in assay [4] was 0.0001 to 10 µM each time.

As for `C[C@H](NC(=O)N1CCC(C(C)(C)C(O)c2cc(Cl)cc3cn[nH]c23)CC1)c1ccccc1` (stereo partly drawn) [Compound P-0354, 4-(1-(5-chloro-1H-indazol-7-yl)-1-hydroxy-2-methylpropan-2-yl)-N-((S)-1-phenylethyl) piperidine-1-carboxamide], the IC50 in assay [1], in assay [2], in assay [3] and in assay [4] was 0.0001 to 10 µM throughout.

On to `CCCNC(=O)N1CCC(C(C)(C)C(O)c2cc(Cl)cc3cn[nH]c23)CC1` (stereo not drawn) [Compound P-0355, 4-(1-(5-chloro-1H-indazol-7-yl)-1-hydroxy-2-methylpropan-2-yl)-N-propylpiperidine-1-carboxamide], for which the IC50 in assay [1], in assay [2], in assay [3] and in assay [4] was 0.0001 to 10 µM in each case.

On to `CC(C)(C)NC(=O)N1CCC(C(C)(C)C(O)c2cc(Cl)cc3cn[nH]c23)CC1` (stereo not drawn) [Compound P-0356, N-(tert-butyl)-4-(1-(5-chloro-1H-indazol-7-yl)-1-hydroxy-2-methylpropan-2-yl)piperidine-1-carboxamide], for which the IC50 in assay [1], in assay [2], in assay [3] and in assay [4] was 0.0001 to 10 µM in each case.
